Results as given in US12357620B2 (New York Medical College, priority 2019, dated 2025).
“Also recorded” adds a separate entry of the source.

How the values were obtained:
[1] = tested on: circulating aged neutrophils (CANs); test: Circulating aged neutrophils (CANs) by multicolor flow cytometry in SCD patients on rifaximin; format: in vivo, human
Excerpt: (§1) (ClinicalTrials.gov Identifier: NCT03719729). There were eight males and five females. Ten patients had HbSS, two HbSß^0thal, and one HbSC. Their median age was 29 years (range 24-56). The median number of VOC in the previous 12 months was 4.5 (range 2-13) and number of days needing intravenous opioid analgesia (IOA) was 25.5 days (range 8-198). In 12 of the 13 patients, the VOC was in the form of musculo-skeletal pain typical in distribution for the VOC that normally affected individual patients and in one patient, the VOC was predominantly in the form of recurrent priapism. Five of the patients were already taking hydroxyurea and none L-glutamine or on a transfusion program. Six patients were taking oral opioid at home for chronic pain. The study ran between November 2018 and early August 2019, covering the winter months when most of the patients reported having most frequent VOC. […] CANs were measured by multicolor flow cytometry. Neutrophils were gated by Gr-1^hi CD115^lo SSC^hi and CANs by CD62L^lo CXCR4^hi within the neutrophil population.

serum iFABP = test: Serum intestinal Fatty Acid Binding Protein (iFABP), intestinal injury, in SCD patients; format: in vivo, human; conditions: 12 SCD patients following rifaximin; to levels comparable to controls without SCD
urinary 3-IS = test: Urinary 3-IS, total intestinal microbial load, in SCD patients; format: in vivo, human; conditions: after being started on oral rifaximin
intestinal microbiome = test: 16S rRNA analysis of stool specimens for changes in intestinal microbiome; format: in vivo, human; conditions: during vs pre-rifaximin treatment
Excerpt: Relative abundances were transformed with the additive log ratio (alr), prior to calculating the difference, to reduce the spurious correlations associated with compositional data. Positive differences signify increased abundance post treatment. Histograms represent the frequency of differences between during and pre-rifaximin treatment alr values, where an increase of abundance during treatment is indicated by a shift of the distribution towards the right.

patients with SCD [2] = test: Clinical trial NCT03719729: VOC episodes and days needing intravenous opioid analgesia; format: in vivo, human
Excerpt: as §1
(§2) Twelve of the 13 patients accrued to the study were evaluable for response. […] The mean self-reported medication compliance of the intended doses was 86% (range 50-100). The median number of VOC during the study period decreased from the expected 2.25 (range 1-6.5) per 6 months to 1 per 6 months (range 0-4) (p=0.003) (FIG. 8). […] Their self-reported medication compliance was 100%. The median decrease in days needing IOA over the six-month study-period was 9 (range 1-55), and the median % reduction was 82 (range 20-100) (p=0.008) (FIG. 9). Total number of days needing IOA was reduced from the expected 254 in six months to 98 during the study period. […] Reported adverse events: 1 case of self-limiting probable viral gastroenteritis (culture negative, C. diff negative by PCR) and 2 cases of increased thirst. Slight nausea was common in the first week.

serum CD62L = test: Serum CD62L, marker of neutrophil activation, in SCD patients; format: in vivo, human; conditions: SCD subjects following rifaximin treatment
Clostridium difficile = conditions: cited from earlier work
serum LPS = test: Serum lipopolysaccharides (LPS), bacterial translocation, in SCD patients; format: in vivo, human; conditions: all treated patients vs pre-treatment; to levels comparable to controls without SCD
patients with SCD [3] = test: Quality of Life survey using the FANTLC questionnaire; format: in vivo, human
Excerpt: Four aspects of QoL issues were examined: Physical well-being, Social well-being, Emotional well-being, and Functional well-being. The scores for response for each of the question were on a scale of 0-4 (0=not at all; 4=very much). As a group, the median score for response to the question “I have pain” decreased from 3.5 to 2 (p=0.08). When the two patients who reported only slight pain before the study (score of 0 or 1) were excluded from the analysis, the median score decreased from 4 to 3 (p=0.04). Changes in the functional well-being of the subjects was examined. […] However, when three subjects were excluded who reported excellent functional well-being even before the study (scores of 3 o 4 for all 7 questions) from the analysis, there was an improvement in the functional well-being of the 9 patients, with the median composite score increased from 14 to 16 (p=0.06).

patients with SCD [4] = test: Clinical trial: laboratory analyses, tolerability and adverse events; format: in vivo, human
Excerpt: as §1, §2

## CO[C@H]1/C=C/O[C@@]2(C)Oc3c(C)c(O)c4c(O)c(c5c(nc6cc(C)ccn65)c4c3C2=O)NC(=O)/C(C)=C\C=C\[C@H](C)[C@H](O)[C@@H](C)[C@@H](O)[C@@H](C)[C@H](OC(C)=O)[C@@H]1C [rifaximin]
[1]; SCD patients, 550 mg twice a day, after 2-4 weeks, range 2.63-20.25, pre-treatment median 12.65% [range 6.07-40.05], two-tailed p=0.0036
  median CANs after rifaximin therapy: 4.55%
[1]; all twelve patients, after 2-4 weeks of rifaximin
  change in CANs after being started on rifaximin: marked reduction; also recorded: dramatic reduction
[1]; two patients whose CANs were analyzed
  CANs at the three-month time-point: continued to decrease
Serum iFABP
  change in serum iFABP: dropped significantly
Urinary 3-IS
  change in urinary 3-IS: drops and drop
Intestinal microbiome
  abundance of Akkermansia in stool: trend towards increased abundance
  abundance of Bacteroides in stool: increase in the abundance
  abundance of Escherichia-Shigella in stool: trend towards increased abundance
Patients with SCD [2]; 12 patients, six months of rifaximin, range 0-4, expected 2.25 (range 1-6.5) per 6 months, p=0.003
  median number of VOC during the study period: 1 per 6 months
Patients with SCD [2]; expected 254 in six months
  total number of days needing IOA during the study period: 98 days
Patients with SCD [2]; self-reported medication compliance 100%
  response of the one patient whose VOC was predominantly priapism: did not respond
Patients with SCD [2]; six-month study period vs expected, range 1-55
  median decrease in days needing IOA: 9 days
Patients with SCD [2]; six-month study period vs expected, range 20-100, p=0.008
  median % reduction in days needing IOA: 82%
Serum CD62L
  change in serum CD62L: drop and significant drop
Clostridium difficile
  activity against Clostridium difficile: has activities against Clostridium difficile
Serum LPS
  change in serum LPS levels: dropped significantly
Patients with SCD [3]; 9 patients, three with excellent baseline excluded, before 14, p=0.06
  median composite score of functional well-being: 16
Patients with SCD [3]; after three months of rifaximin, before 1, p=0.048
  median score to the question "I am enjoying the things I usually do for fun": 2.5
Patients with SCD [3]; after three months of rifaximin, before 2, p=0.026
  median score to the question "I am able to enjoy life": 2.5
Patients with SCD [3]; following rifaximin
  functional well-being, as a group: not any significant difference
Patients with SCD [3]; following rifaximin therapy
  emotional and social well-being: No significant change
Patients with SCD [3]; scale 0-4, as a group, before rifaximin 3.5, p=0.08
  median score for response to the question "I have pain": 2
Patients with SCD [3]; scale 0-4, before rifaximin 4, p=0.04
  median score "I have pain", two patients with only slight pain excluded: 3
Patients with SCD [4]; both, human, in vivo, 6 months
  adverse event: increased thirst: 2 cases
Patients with SCD [4]; culture negative, C. diff negative by PCR, 12 patients
  adverse event: self-limiting probable viral gastroenteritis: 1 case
Patients with SCD [4]; human, in vivo
  adverse event: slight nausea: common
  change in bilirubin: did not show any significant change
  change in haptoglobin: did not show any significant change
  change in hemoglobin: did not show any significant change
  change in serum lactate dehydrogenase: did not show any significant change
  change in white cell counts: did not show any significant change
